Test results: USRE49850E1, “N-(pyridin-2-yl)-4-(thiazol-5-yl)pyrimidin-2-amine derivatives as therapeutic compounds” (AUCENTRA THERAPEUTICS PTY LTD, priority 2015, dated 2024)

What was measured:
[1] = test system: MDA-MB-453; assay: Cell viability assay (MTT, solid tumour cell line) MDA-MB-453; format: cell-based, human; details: Homo sapiens, MDA-MB-453, 72 h; read-out: Anti-proliferative activity GI50 MDA-MB-453
Excerpt: (§1) Compounds from Example 1 were subjected to a standard MTT (3-(4,5-dimethylthiazol-2-yl)-2,5-diphenyltetrazolium bromide) and resazurin assays on solid tumour cell lines and leukemia cell lines, respectively, as previously reported (Wang S et al., J Med Chem 47:1662-1675, 2004 and Diab S. et al. CheMedChem 9:962-972, 2014).

[2] = target: CDK1B (Homo sapiens, UniProt P06493); assay: Kinase assay CDK1B (radiometric profiling service); format: biochemical; details: apparent Ki calculated from Km (ATP) and IC50; read-out: CDK inhibition Ki CDK1B
CDK1B, sequence (P06493 whole entry): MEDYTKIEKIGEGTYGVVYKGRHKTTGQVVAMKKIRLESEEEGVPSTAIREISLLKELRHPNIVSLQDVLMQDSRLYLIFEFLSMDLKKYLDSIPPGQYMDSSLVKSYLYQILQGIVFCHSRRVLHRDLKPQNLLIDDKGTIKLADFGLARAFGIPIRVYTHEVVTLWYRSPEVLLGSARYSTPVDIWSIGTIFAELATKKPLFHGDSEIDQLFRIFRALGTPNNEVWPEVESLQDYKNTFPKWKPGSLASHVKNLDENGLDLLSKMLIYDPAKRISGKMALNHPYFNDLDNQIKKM
CDK1B, sequence (P14635 whole entry partner): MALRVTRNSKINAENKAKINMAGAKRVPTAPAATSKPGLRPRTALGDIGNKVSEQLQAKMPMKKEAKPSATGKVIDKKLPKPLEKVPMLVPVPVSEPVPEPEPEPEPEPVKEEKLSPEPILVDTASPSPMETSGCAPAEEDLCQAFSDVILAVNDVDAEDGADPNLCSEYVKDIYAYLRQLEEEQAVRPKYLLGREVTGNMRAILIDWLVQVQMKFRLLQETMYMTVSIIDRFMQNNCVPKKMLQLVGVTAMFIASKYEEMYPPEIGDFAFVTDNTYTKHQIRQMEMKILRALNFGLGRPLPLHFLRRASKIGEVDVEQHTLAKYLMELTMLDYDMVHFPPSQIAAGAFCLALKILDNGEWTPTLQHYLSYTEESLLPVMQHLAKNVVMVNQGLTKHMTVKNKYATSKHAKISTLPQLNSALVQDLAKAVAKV
Method in brief: (§2)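 Compounds were diluted 1:3 over 10 concentrations (10 μM to 0.5 nM). CDK4/D1 reactions with RB-CTF substrate were started with ATP, run 40 min at 37° C, then quenched and detected by ADP-Glo luminescence. CDK7, CDK2 and CDK1 were tested radiometrically by a service. IC50 was fitted by logistic regression.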

[3] = target: CDK 2A (Homo sapiens, UniProt P24941); assay: Kinase assay CDK2A (radiometric profiling service); format: biochemical; details: apparent Ki calculated from Km (ATP) and IC50; read-out: CDK inhibition Ki CDK 2A
Method in brief: as §2

[4] = test system: MV4-11; assay: Cell viability assay (resazurin, leukemia cell line) MV4-11; format: cell-based, human; details: Homo sapiens, MV4-11, 72 h; read-out: Anti-proliferative activity GI50 MV4-11
Excerpt: as §1

[5] = target: T1, CDK9T1 (Homo sapiens, UniProt P50750); assay: Kinase assay CDK9/T1 (radiometric or ADP Glo); format: biochemical; details: for Ki: apparent Ki calculated from Km (ATP) and IC50, read-out: CDK inhibition Ki CDK9T1
T1 construct: purchased Eurofins Pharma Discovery or Reaction Biology Corporation (service)
T1 sequence (P50750 whole entry): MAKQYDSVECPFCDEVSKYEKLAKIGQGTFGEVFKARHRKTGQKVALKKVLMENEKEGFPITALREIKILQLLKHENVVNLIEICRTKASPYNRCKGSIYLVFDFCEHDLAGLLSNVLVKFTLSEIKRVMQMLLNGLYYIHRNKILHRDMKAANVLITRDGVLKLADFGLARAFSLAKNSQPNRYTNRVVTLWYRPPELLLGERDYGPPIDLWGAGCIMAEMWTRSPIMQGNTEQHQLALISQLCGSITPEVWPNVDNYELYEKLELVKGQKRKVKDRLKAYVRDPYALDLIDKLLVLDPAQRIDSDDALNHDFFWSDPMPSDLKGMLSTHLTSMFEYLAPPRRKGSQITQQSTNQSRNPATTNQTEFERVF
T1 sequence (O60563 whole entry partner): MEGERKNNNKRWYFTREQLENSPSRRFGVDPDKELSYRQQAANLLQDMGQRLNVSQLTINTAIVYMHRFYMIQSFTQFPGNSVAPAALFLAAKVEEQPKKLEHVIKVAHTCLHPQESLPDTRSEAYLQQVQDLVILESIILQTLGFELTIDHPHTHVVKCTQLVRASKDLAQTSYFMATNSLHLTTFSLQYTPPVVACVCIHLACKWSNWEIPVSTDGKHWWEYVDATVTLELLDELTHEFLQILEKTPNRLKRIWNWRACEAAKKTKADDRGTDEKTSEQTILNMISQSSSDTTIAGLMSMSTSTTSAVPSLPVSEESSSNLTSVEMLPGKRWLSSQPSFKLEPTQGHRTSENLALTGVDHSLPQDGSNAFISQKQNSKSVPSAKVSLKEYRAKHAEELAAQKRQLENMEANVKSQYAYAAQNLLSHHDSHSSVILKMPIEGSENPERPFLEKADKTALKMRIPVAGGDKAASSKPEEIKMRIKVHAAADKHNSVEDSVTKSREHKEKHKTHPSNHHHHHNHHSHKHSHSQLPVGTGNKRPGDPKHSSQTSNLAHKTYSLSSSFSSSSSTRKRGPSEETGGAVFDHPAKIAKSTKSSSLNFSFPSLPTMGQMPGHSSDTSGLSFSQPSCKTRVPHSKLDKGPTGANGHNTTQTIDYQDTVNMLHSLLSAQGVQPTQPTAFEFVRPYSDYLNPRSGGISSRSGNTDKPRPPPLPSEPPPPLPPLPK
Method in brief: (§3)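 Radiometric inhibition data for CDKs came from Eurofins or Reaction Biology profiling services; CDK4/D1 was also run in-house by ADP-Glo in […] pH 7.5, 20 mM MgCl2, 0.4 mM DTT, 0.1 mg/ml BSA with RB-CTF substrate, 40 min at 37 °C after ATP start. Ten-point 1:3 dilutions (10 μM–0.5 nM); four-parameter IC50, Ki from IC50 and ATP Km.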

[6] = target: T2, CDK4D1 (Homo sapiens, UniProt P11802); assay: Kinase assay CDK4/D1 (radiometric or ADP Glo); format: biochemical; details: apparent Ki calculated from Km (ATP) and IC50; read-out: CDK inhibition Ki CDK4D1
T2 construct: purchased Eurofins Pharma Discovery or Reaction Biology Corporation (service)
T2 sequence (P11802 whole entry): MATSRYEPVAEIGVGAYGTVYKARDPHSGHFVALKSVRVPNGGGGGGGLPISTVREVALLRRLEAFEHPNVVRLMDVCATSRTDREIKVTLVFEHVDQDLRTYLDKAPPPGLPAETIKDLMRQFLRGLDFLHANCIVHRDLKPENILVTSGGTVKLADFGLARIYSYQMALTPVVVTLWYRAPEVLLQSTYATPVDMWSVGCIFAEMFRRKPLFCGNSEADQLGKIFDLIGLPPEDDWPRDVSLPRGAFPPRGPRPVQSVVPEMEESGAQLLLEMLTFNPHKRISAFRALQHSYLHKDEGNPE
T2 sequence (P24385 whole entry partner): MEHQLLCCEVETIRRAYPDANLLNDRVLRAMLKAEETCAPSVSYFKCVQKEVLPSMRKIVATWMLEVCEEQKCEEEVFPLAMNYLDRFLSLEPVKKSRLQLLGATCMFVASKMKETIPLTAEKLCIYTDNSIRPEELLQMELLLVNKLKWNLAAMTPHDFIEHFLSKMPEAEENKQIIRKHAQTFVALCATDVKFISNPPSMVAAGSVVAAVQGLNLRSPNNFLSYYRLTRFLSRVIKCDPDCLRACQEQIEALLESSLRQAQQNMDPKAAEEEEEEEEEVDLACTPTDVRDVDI
Method in brief: as §2

[7] = target: T3, CDK6D3 (Homo sapiens, UniProt Q00534); assay: Kinase assay CDK6/D3 (radiometric or ADP Glo); format: biochemical; details: apparent Ki calculated from Km (ATP) and IC50; read-out: CDK inhibition Ki CDK6D3
T3 construct: purchased Eurofins Pharma Discovery or Reaction Biology Corporation (service)
T3 sequence (Q00534 whole entry): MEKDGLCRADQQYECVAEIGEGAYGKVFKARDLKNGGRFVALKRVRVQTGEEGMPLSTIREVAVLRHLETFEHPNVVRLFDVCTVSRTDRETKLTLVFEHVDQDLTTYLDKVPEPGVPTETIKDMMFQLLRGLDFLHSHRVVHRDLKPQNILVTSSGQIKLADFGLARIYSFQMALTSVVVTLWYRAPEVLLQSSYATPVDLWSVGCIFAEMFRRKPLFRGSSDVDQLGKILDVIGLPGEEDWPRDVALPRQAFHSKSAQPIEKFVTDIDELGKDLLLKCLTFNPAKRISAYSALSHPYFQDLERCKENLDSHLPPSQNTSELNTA
T3 sequence (P30281 whole entry partner): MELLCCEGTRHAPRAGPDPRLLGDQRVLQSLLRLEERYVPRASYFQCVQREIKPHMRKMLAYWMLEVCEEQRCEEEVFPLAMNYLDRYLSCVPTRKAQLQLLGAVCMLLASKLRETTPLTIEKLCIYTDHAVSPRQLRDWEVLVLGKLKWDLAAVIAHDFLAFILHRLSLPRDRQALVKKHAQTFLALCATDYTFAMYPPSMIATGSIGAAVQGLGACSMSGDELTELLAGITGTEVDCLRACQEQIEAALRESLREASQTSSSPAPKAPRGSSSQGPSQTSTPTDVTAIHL
Method in brief: as §3

[8] = target: CDK7H (Homo sapiens, UniProt P50613); assay: Kinase assay CDK7H (radiometric profiling service); format: biochemical; details: for Ki: apparent Ki calculated from Km (ATP) and IC50, read-out: CDK inhibition Ki CDK7H
CDK7H, sequence (P50613 whole entry): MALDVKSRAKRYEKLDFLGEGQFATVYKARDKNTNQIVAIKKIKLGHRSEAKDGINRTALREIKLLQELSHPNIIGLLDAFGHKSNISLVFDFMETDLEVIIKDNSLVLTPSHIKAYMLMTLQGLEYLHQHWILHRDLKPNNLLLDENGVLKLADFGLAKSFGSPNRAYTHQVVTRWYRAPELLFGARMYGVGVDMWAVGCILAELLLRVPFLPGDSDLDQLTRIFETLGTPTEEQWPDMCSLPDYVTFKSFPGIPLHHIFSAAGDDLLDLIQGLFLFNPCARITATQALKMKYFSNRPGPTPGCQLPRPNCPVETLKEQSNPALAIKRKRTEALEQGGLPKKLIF
CDK7H, sequence (P51946 whole entry partner): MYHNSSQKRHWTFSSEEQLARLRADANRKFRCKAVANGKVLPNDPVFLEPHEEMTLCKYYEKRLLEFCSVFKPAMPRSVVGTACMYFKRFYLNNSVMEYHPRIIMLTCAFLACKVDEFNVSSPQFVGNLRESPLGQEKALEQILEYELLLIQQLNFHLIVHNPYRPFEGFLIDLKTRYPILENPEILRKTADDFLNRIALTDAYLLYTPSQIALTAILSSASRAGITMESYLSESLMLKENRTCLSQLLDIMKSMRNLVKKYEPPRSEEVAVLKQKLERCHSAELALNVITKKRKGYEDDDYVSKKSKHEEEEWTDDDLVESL
CDK7H, sequence (P51948 whole entry partner): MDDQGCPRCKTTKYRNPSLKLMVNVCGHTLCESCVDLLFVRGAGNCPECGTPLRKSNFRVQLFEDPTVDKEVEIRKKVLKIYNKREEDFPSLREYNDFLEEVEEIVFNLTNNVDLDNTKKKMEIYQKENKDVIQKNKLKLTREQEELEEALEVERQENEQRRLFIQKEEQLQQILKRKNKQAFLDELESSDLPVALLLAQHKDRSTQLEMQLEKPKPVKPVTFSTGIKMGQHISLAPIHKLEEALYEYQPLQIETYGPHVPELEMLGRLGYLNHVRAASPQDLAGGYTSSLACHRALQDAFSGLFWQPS
Description: Eurofins Pharma Discovery or Reaction Biology Corporation Kinase Profiler services were used to measure inhibition of CDKs and other kinases by radiometric assay. Inhibition of CDK4/D1, CDK6/D3 and CDK9/T1 were also determined in-house using ADP Glo Kinase assays (Promega Corporation, Madison, USA). Briefly, the kinase reaction for CDK4/D1 and CDK6/D3 was performed with kinase reaction buffer ([…] Tris base pH 7.5, 20 mM MgCl2, 0.4 mM DTT), 0.1 mg/ml BSA and RB-CTF substrate (retinoblastoma protein1 C-terminal fraction). For CDK9/CyclinT1, the kinase reaction was performed with standard assay buffer and Kinase Dilution Buffer and RBER-IRStide substrate. Serial dilutions of 1:3 were prepared for test compounds for 10 concentrations (from 10 μM to 0.5 nM). The kinase reactions were started by addition of ATP, incubated for 40 min at 37° C. and then stopped by adding 10 μL of ADP Glo reagent. After incubation at room temperature in the dark for 40 min, 20 μL of kinase detection reagent was added per well and incubated for 40 min. Luminescence was measured using an EnVision Multilabel plate reader (PerkinElmer, Buckinghamshire, UK). Positive and negative controls were perfonned in the presence and absence of CDK kinases, respectively. Half-maximal inhibition (IC50) values were calculated using a 4-parameter logistic non-linear regression model with Graphpad prism (Version 6.0). Apparent inhibition constants (Ki) values were calculated from Km (ATP) and IC50 values for the respective kinases.

| GI50 [1] [nM] | Ki [2] [µM] | Ki [3] [nM] | GI50 [4] [nM] | Ki [5] [µM] | Ki [6] [nM] | Ki [7] [nM] | Ki [8] [µM] | remaining activity at 10 µM ([5]; compound at 10 μM, read-out: % remaining enzymatic activity at 10 μM CDK9T1) [%] | remaining activity at 10 µM ([8]; compound at 10 μM, read-out: % remaining enzymatic activity at 10 μM CDK7H) [%] | Compound |
| --- | --- | --- | --- | --- | --- | --- | --- | --- | --- | --- |
| 1050 ± 203 | 1.44 | 60 | 649 ± 24 | 1.73 | 1 | 4 | 4.69 | – | – | Cc1nc(C(C)C)sc1-c1ccnc(Nc2ccc(N3CCOCC3)cn2)n1 [Compound 17, 4-(2-isopropyl-4-methylthiazol-5-yl)-N-(5-morpholinopyridin-2-yl)pyrimidin-2-amine] |
| 166 ± 117 | > 5 | 775 | 418 ± 23 | > 10 | 28 | 394 | > 5 | – | – | CCN1CCN(Cc2ccc(Nc3nccc(-c4sc(C(C)C)nc4C)n3)nc2)CC1 [Compound 18, N-(5-((4-ethylpiperazin-1-yl)methyl)pyridin-2-yl)-4-(2-isopropyl-4-methylthiazol-5-yl)pyrimidin-2-amine] |
| > 10000 | > 5 | 3650 | 3520 ± 1040 | 4.76 | 310 | 935 | > 5 | – | – | COc1nc(C)c(-c2ccnc(Nc3ccc(N4CCN(C)CC4)cn3)n2)s1 [Compound 19, 4-(2-methoxy-4-methylthiazol-5-yl)-N-(5-(4-methylpiperazin-1-yl)pyridin-2-yl)pyrimidin-2-amine] |
| 3140 ± 173 | > 5 | 720 | 671 ± 91 | 4.53 | 5 | 20 | > 5 | – | – | CSc1nc(C)c(-c2ccnc(Nc3ccc(N4CCNCC4)cn3)n2)s1 [Compound 20, 4-(4-Methyl-2-(methylthio)thiazol-5-yl)-N-(5-(piperazin-1-yl)pyridin-2-yl)pyrimidin-2-amine] |
| 7160 ± 886 | > 5 | 2700 | 456 ± 66 | > 5 | 7 | 42 | > 5 | – | – | CSc1nc(C)c(-c2ccnc(Nc3ccc(N4CCN(C)CC4)cn3)n2)s1 [Compound 21, 4-(4-methyl-2-(methylthio)thiazol-5-yl)-N-(5-(4-methylpiperazin-1-yl)pyridin-2-yl)pyrimidin-2-amine] |
| > 10000 | > 5 | 4760 | 2510 ± 432 | – | 190 | 1950 | – | 80 | 86 | CSc1nc(C)c(-c2ccnc(Nc3ccc(N4CCN(C(C)=O)CC4)cn3)n2)s1 [Compound 22, 1-(4-(6-((4-(4-methyl-2-(methylthio)thiazol-5-yl)pyrimidin-2-yl)amino)pyridin-3-yl)piperazin-1-yl)ethan-1-one] |
| 461 ± 59 | > 5 | 180 | 73 ± 25 | > 5 | 30 | 200 | > 5 | – | – | Cc1nc(SC(C)C)sc1-c1ccnc(Nc2ccc(N3CCNCC3)cn2)n1 [Compound 23, 4-(2-(isopropylthio)-4-methylthiazol-5-yl)-N-(5-(piperazin-1-yl)pyridin-2-yl)pyrimidin-2-amine] |
| 4880 ± 214 | 3.99 | 180 | 66 ± 19 | 4.61 | 1 | 15 | > 5 | – | – | Cc1nc(SC(C)C)sc1-c1ccnc(Nc2ccc(N3CCN(C)CC3)cn2)n1 [Compound 24, 4-(2-(isopropylthio)-4-methylthiazol-5-yl)-N-(5-(4-methylpiperazin-1-yl)pyridin-2-yl)pyrimidin-2-amine] |
| 514 ± 50 | > 5 | 75 | 537 ± 117 | > 5 | 5 | 20 | > 5 | – | – | CC(=O)N1CCN(c2ccc(Nc3nccc(-c4sc(SC(C)C)nc4C)n3)nc2)CC1 [Compound 25, 1-(4-(6-((4-(2-(isopropylthio)-4-methylthiazol-5-yl)pyrimidin-2-yl)amino)pyridin-3-yl)piperazin-1-yl)ethan-1-one] |
| 248 ± 44 | 1.36 | 236 | 12 ± 3 | 0.784 | 4 | 32 | > 5 | – | – | CNc1nc(C)c(-c2nc(Nc3ccc(N4CCNCC4)cn3)ncc2F)s1 [Compound 28, 5-(5-fluoro-2-((5-(piperazin-1-yl)pyridin-2-yl)amino)pyrimidin-4-yl)-N,4-dimethylthiazol-2-amine] |
| 5840 ± 279 | 3.1 | 310 | 154 ± 74 | > 5 | 578 | 3030 | > 5 | – | – | CNc1nc(C)c(-c2ccnc(Nc3ccc(N4CCN(C(C)=O)CC4)cn3)n2)s1 [Compound 33, 1-(4-(6-((4-(4-methyl-2-(methylamino)thiazol-5-yl)pyrimidin-2-yl)amino)pyridin-3-yl)piperazin-1-yl)ethan-1-one] |
| 4910 ± 432 | 1.82 | 178 | 35 ± 4 | 4.07 | 17 | 46 | > 5 | – | – | CNc1nc(C)c(-c2nc(Nc3ccc(N4CCN(C(C)=O)CC4)cn3)ncc2F)s1 [Compound 35, 1-(4-(6-((5-fluoro-4-(4-methyl-2-(methylamino)thiazol-5-yl)pyrimidin-2-yl)amino)pyridin-3-yl)piperazin-1-yl)ethan-1-one] |
| 5410 ± 801 | 3.31 | 100 | 69 ± 5 | > 5 | 5 | 30 | > 5 | – | – | CNc1nc(C)c(-c2nc(Nc3ccc(N4CCOCC4)cn3)ncc2F)s1 [Compound 38, 5-(5-fluoro-2-((5-morpholinopyridin-2-yl)amino)pyrimidin-4-yl)-N,4-dimethylthiazol-2-amine] |
| 894 ± 91 | > 5 | 903 | 11 ± 21 | > 5 | 21 | 56 | > 5 | – | – | Cc1nc(N(C)C)sc1-c1ccnc(Nc2ccc(N3CCNCC3)cn2)n1 [Compound 43, N,N,4-trimethyl-5-(2-((5-(piperazin-1-yl)pyridin-2-yl)amino)pyrimidin-4-yl)thiazol-2-amine] |
| 237 ± 44 | > 5 | 335 | 48 ± 4 | > 5 | 4 | 40 | > 5 | – | – | Cc1nc(N(C)C)sc1-c1nc(Nc2ccc(N3CCNCC3)cn2)ncc1F [Compound 44, 5-(5-fluoro-2-((5-(piperazin-1-yl)pyridin-2-yl)amino)pyrimidin-4-yl)-N,N,4-trimethylthiazol-2-amine] |
| 2100 ± 787 | > 5 | 1430 | 92 ± 4 | > 5 | 30 | 154 | > 5 | – | – | Cc1nc(N(C)C)sc1-c1ccnc(Nc2ccc(N3CCN(C)CC3)cn2)n1 [Compound 45, N,N,4-trimethyl-5-(2-((5-(4-methylpiperazin-1-yl)pyridin-2-yl)amino)pyrimidin-4-yl)thiazol-2-amine] |
